Test results as given in patent publication EP4467141A1, “PYRAZOLO-QUINOLINES AS SELECTIVE INHIBITORS OF GENOTOXIC STRESS-INDUCED IKK/NF- KB PATHWAYS FOR CANCER THERAPY” (Max-Delbrück-Centrum für Molekulare Medizin in der …, priority 2023, dated 2024).
Read-outs that look alike come from different tables or passages of the source.

Assays:
Assay in all cases: Kinase panel study
Assay type in all cases: biochemical
[1] = molecular target: T1, CLK1 (Homo sapiens, UniProt P49759)
T1 construct: purchased Thermo Fisher Scientific
Method: (§1) The Kinase panel study was entirely provided by Thermo Fisher Scientific using the two lead compounds MW01 and MW05 as well as their derivatives (MW01-E06, MW01-E10, MW01-E14, MW01-E18, MW05-E2, MW05-E3, MW05-E9 and MW05-E10. The experiment was performed using the ZLyte or Adapta protocol according to manufacturer standard operating procedures.
Based on their similar effects in our screen and molecular analysis, MW01 and MW05 were used in comparative target deconvolution studies seeking common targets despite their distinct structures. To eliminate previously identified kinases regulating NF-κB activity, such as IKK, as possible targets of MW01 and MW05, an in vitro kinase inhibition assay was performed. […] We next investigated if any of the shared kinase targets of MW01 and MW05 play a role in genotoxic stress-induced NF-κB activity and established several criteria to narrow down pathway-relevant targets. Considering the similar NF-κB inhibition phenotypes of both compounds, we hypothesized first that the target should be shared by both lead compounds. Second, based on the CaCo2 recovery values and experimental treatment concentration of 10 µM), the putative target kinase should have a low IC50 of, at most, 2000 nM for both lead compounds in the in vitro kinase panel (Fig. 2A). Based on these criteria alone, we arrived at a relatively short list of potential targets for further analysis, leaving only PIK3CG, PIK3C2G, and CLK2 (Fig. 2B). IC50 values for PIK3C2G by both lead compounds agreed best with these criteria, but RNA expression analysis indicates high tissue specificity as well as lack of expression of this kinase in our U2-OS model cell line, which we then eliminated from further analysis (Uhlén et al., 2015). […] Table 6: Percentage of inhibition of the indicated kinases by MW01 or MW05 at either 10 µM or 1 µM. n.d. = not determined. […]

[2] = molecular target: T2, CLK3 (Homo sapiens, UniProt P49761); conditions: for CLK3 inhibition: in vitro kinase assay, isoform specificity; for inhibition at 10 µM: CLK3, compound at 10µM
T2 construct: purchased Thermo Fisher Scientific
Method: as §1, with “procedures. […]” for “procedures.”

[3] = molecular target: T3, BTK (Homo sapiens, UniProt Q06187); conditions: for inhibition at 1 µM: 1000nM
T3 construct: purchased Thermo Fisher Scientific
Method: as §1
(§2) Based on their similar effects in our screen and molecular analysis, MW01 and MW05 were used in comparative target deconvolution studies seeking common targets despite their distinct structures. To eliminate previously identified kinases regulating NF-κB activity, such as IKK, as possible targets of MW01 and MW05, an in vitro kinase inhibition assay was performed. […] We next investigated if any of the shared kinase targets of MW01 and MW05 play a role in genotoxic stress-induced NF-κB activity and established several criteria to narrow down pathway-relevant targets. Considering the similar NF-κB inhibition phenotypes of both compounds, we hypothesized first that the target should be shared by both lead compounds. Second, based on the CaCo2 recovery values and experimental treatment concentration of 10 µM), the putative target kinase should have a low IC50 of, at most, 2000 nM for both lead compounds in the in vitro kinase panel (Fig. 2A). Based on these criteria alone, we arrived at a relatively short list of potential targets for further analysis, leaving only PIK3CG, PIK3C2G, and CLK2 (Fig. 2B). IC50 values for PIK3C2G by both lead compounds agreed best with these criteria, but RNA expression analysis indicates high tissue specificity as well as lack of expression of this kinase in our U2-OS model cell line, which we then eliminated from further analysis (Uhlén et al., 2015). […] Table 6: Percentage of inhibition of the indicated kinases by MW01 or MW05 at either 10 µM or 1 µM. n.d. = not determined.

[4] = molecular target: T4, PIP4K2A (Homo sapiens, UniProt P48426); conditions: for inhibition at 1 µM: 1000nM
T4 construct: purchased Thermo Fisher Scientific
T4 sequence (P48426 1-406): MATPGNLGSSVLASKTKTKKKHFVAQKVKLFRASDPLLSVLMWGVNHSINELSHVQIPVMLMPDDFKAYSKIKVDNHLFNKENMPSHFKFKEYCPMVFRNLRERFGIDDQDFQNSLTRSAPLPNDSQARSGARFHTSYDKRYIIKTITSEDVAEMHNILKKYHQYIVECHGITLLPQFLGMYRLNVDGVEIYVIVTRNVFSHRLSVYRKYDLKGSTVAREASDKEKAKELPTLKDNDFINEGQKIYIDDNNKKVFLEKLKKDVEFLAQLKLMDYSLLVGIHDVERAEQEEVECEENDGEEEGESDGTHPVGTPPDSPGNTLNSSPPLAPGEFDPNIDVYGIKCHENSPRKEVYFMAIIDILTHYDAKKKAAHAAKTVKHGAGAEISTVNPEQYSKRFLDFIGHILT
Method: as §1, §2

[5] = 10000nM, read-out: Percentage of inhibition
[6] = read-out: Percentage of inhibition
[7] = CLK1, compound at 10µM, read-out: % of Inhibition
[8] = BTK, compound at 10µM, read-out: % of Inhibition
[9] = PIP4K2A, compound at 10µM, read-out: % of Inhibition

T1 sequence (P49759 whole entry): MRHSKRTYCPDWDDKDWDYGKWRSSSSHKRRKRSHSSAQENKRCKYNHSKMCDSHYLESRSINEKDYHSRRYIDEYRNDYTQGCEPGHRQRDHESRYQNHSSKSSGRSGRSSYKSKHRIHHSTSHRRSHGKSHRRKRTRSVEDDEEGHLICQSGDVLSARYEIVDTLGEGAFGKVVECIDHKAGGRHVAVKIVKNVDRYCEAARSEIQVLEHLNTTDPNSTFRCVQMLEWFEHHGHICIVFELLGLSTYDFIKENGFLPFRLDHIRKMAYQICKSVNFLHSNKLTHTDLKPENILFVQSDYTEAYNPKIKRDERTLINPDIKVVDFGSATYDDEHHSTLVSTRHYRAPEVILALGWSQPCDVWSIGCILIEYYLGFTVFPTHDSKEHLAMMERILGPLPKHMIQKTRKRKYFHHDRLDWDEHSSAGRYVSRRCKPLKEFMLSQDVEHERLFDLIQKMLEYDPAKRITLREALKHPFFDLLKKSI
T2 sequence (P49761 whole entry, canonical isoform): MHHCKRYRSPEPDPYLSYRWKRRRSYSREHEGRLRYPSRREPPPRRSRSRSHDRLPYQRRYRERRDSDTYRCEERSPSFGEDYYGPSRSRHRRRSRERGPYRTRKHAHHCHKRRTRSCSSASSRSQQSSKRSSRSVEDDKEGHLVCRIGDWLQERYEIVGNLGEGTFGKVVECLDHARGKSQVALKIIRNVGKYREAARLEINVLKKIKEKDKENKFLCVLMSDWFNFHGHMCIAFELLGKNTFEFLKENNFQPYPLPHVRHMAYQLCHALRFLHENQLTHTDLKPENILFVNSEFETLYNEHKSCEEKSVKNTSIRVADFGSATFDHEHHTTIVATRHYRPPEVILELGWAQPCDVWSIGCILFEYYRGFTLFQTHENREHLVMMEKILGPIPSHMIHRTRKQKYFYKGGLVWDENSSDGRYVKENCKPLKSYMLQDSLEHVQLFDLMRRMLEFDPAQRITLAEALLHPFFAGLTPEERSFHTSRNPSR
T3 sequence (Q06187 whole entry): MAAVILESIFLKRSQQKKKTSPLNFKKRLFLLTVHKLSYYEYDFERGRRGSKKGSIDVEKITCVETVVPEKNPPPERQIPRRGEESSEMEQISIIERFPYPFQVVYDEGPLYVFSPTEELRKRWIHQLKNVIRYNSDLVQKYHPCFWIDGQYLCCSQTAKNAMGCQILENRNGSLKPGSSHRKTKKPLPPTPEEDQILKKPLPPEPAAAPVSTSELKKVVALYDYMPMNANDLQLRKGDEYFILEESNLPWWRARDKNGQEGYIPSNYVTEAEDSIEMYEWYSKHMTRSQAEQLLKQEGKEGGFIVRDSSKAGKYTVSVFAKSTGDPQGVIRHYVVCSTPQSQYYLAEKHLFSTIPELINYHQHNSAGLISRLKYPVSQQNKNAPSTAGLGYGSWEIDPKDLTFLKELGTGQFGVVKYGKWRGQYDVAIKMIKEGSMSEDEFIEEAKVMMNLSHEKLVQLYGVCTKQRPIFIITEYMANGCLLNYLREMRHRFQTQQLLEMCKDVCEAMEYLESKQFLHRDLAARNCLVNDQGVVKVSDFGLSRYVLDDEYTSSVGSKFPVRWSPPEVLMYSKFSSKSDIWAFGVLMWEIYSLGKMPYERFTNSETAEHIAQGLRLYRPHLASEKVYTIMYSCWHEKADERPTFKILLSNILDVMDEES

Row | inhibition at 10 µM [1, 7] [%] | inhibition at 10 µM [2] [%] | inhibition at 10 µM [3, 8] [%] | inhibition at 10 µM [4, 9] [%] | SMILES | inhibition at 10 µM [1, 5] [%] | CLK3 inhibition [2] | inhibition at 1 µM [3, 6] [%] | inhibition at 10 µM [3, 5] [%] | inhibition at 1 µM [4, 6] [%] | inhibition at 10 µM [4, 5] [%]
1 |  |  |  |  | COc1ccc2c(c1OC)c(=O)n1c3ccc(O)cc3c3ccnc2c31 [MW01, 5-Hydroxy-10,11-dimethoxy-9H-benzo[c]indolo[3,2,1-ij][1,5]naphthyridin-9-one] | 88 | largely spare CLK3 | 11 | 23 | -8 | -3
2 |  |  |  |  | COc1ccc2cc3c(N)nn(C(=O)c4cccc(N(C)C)c4)c3nc2c1 [MW05, (3-Amino-7-methoxypyrazolo[3,4-b]quinolin-1-yl)-[3-(dimethylamino)phenyl]methanone] | 73 | largely spare CLK3 | 5 | 8 | -10 | -9
3 | 10 | 9 | 30 | -4 | COc1ccc2c(c1)c1ccnc3c4nc(OC)ccc4c(=O)n2c13 [MW01-E6, 5,15-dimethoxy-1,11,14-triazapentacyclo[10.7.1,0^2,7.0^8,^20.0^13,^18]icosa-2(7),3,5,8(20),9,11,13(18),14,16-nonaen-19-one] |  |  |  |  |  | 
4 | 61 | 35 | 30 | -1 | O=c1c2cnccc2c2nccc3c4cc(O)ccc4n1c32 [MW01-E18, 5-hydroxy-1,11,16-triazapentacyclo[10.7.1.0^2,^7.0^8,^20.0^13,^18]icosa-2(7),3,5,8(20),9,11,13(18),14,16-nonaen-19-one] |  |  |  |  |  | 
5 | 6 | 7 | 29 | 53 | COc1ccc2c(c1)c1ccnc3c4ccnc(OC)c4c(=O)n2c13 [MW01-E14, 5,17-dimethoxy-1,11,16-triazapentacyclo[10.7.1.0^2,^7.0^8,^20.0^13,^18]icosa-2(7),3,5,8(20),9,11,13(18),14,16-nonaen-19-one] |  |  |  |  |  | 
6 | 16 | 5 | 7 | -6 | COc1ccc2nc3c(cc2c1)c(N)nn3C(=O)c1cccc(N(C)C)c1 [MW05-E2, 1-[3-(dimethylamino)benzoyl]-6-methoxy-1H-pyrazolo[3,4-b]quinolin-3-amine] |  |  |  |  |  | 
7 | 69 | 35 | 69 | -2 | O=c1c2cc(O)ccc2c2nccc3c4cc(O)ccc4n1c32 [MW01-E10, 5,16-dihydroxy-1,11-diazapentacyclo[10.7.1.0^2,^7.0^8,^20.0^13,^18]icosa-2(7),3,5,8(20),9,11,13(18),14,16-nonaen-19-one] |  |  |  |  |  | 
